{"source": "paper PMC13291975", "about": "“Brighter NIR Bioluminescence System for Mammalian Cell Bioimaging Based on Engineered Railroadworm Luciferase and 6′-Aminoluciferin Analogues” (Chemical & Biomedical Imaging, 2026)", "origin": "cited, not measured here", "molecular_target": "T1, Phrixotrix hirtus railroadworm red-emitting luciferase (PxRE; RE-WT) (Phrixothrix hirtus, UniProt Q9U4U7)", "T1 construct": "N-terminal His-tag, pCold vector, expressed in E. coli BL21-DE3, Ni-agarose purified", "T1 sequence (Q9U4U7 entry or part of it)": "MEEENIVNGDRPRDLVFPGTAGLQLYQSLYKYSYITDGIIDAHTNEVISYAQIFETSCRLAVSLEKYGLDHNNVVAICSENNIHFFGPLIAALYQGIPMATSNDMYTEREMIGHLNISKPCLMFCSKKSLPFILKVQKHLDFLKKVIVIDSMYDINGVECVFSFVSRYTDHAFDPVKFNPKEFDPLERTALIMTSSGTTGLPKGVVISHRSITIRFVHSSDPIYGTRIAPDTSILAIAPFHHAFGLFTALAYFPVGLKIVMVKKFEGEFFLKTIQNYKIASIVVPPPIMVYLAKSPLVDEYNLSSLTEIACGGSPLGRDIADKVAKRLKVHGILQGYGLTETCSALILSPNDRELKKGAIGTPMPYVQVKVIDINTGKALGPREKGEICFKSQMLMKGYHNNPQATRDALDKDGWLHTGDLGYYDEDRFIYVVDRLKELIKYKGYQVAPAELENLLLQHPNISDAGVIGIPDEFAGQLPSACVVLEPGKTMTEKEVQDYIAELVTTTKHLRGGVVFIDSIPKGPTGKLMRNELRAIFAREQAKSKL", "assay": "bioluminescence peak intensity, Lineweaver-Burk", "format": "biochemical", "details": "read-out: K M LH2; ATP/MgSO4, 0.1 M Tris-HCl pH 8.0; kcat in relative luminometer counts; error not given, value possibly from the authors' earlier work; the text says 'Previously, we showed'", "text": "bioluminescence peak intensity, Lineweaver-Burk on Phrixotrix hirtus railroadworm red-emitting luciferase (PxRE; RE-WT)", "data": [{"smiles": "O=C(O)[C@H]1CSC(c2nc3ccc(O)cc3s2)=N1", "note": "[LH2, D-luciferin]", "values": [{"measurement": "Km", "result": 7, "unit": "µM"}]}]}
